# Measurements as given in patent US20260283946A1, “PHARMACEUTICAL DRY POWDER COMPOSITION AND METHODS FOR TREATING RESPIRATORY TRACT INFECTIONS” (priority 2022, published 2026).
# System: Vero cells
# Test: Luciferase assay of total cellular ATP
# Format: cell-based, African green monkey
# Details: 5 μM ouabain, 0.4, 0.8 and 1.1% BREATHOX POWDER, 1 h
# Description: Then to see the available ATP a luciferase assay was performed. Changes of the total concentration of ATP in Vero cells exposed to increasing concentrations of NaCl for 1 or 72 h was determined by plate microfluorimetry recordings with the FlexStation III microplate reader and the ATP Assay Kit (SIGMA-ALDRICH) following the manufacturer's instructions. The kit provides extremely sensitive results, detecting ATP release of 10-100 mammalian cells/well, based on the firefly luciferase-catalyzed oxidation of D-luciferin in the presence of ATP, which the amount of ATP is quantified by the amount of light (hv) produced. Recordings of the luminescence intensity of 5×10^4 cells in black clear bottom of 96 wells plates were acquired at rest (point 0 h), 1 h, 24 h and 72 h after NaCl challenge (depolarizing agent).
# In order to test whether the reduced level of ATP was caused by the increased activity of Na+/K+ ATPase transporter, Vero cells were treated with 0.4, 0.8 and 1.1% of BREATHOX® POWDER in presence or absence of 5 μM ouabain (Na+/K+ ATPase transporter inhibitor). Changes in total ATP concentration in Vero cells exposed to increasing concentrations of BREATHOX® POWDER with or without 5 μM ouabain for 1 hour was determined by plate microfluorimetry recordings with the FlexStation III microplate reader and the ATP Assay Kit (SIGMA-Aldrich) following the manufacturer's instructions. […]
structure (smiles),measurement,value
C[C@@H]1O[C@@H](O[C@H]2C[C@@H](O)[C@]3(CO)[C@H]4[C@H](O)C[C@]5(C)[C@@H](C6=CC(=O)OC6)CC[C@]5(O)[C@@H]4CC[C@]3(O)C2)[C@H](O)[C@H](O)[C@H]1O [ouabain],decrease in ATP level caused by BREATHOX POWDER,significantly reversed
